Measurements from the supplement of paper PMC13380429.

Assays:
A549-ACE2 [1] = assay: drug-induced phospholipidosis relative to tamoxifen; higher = more phospholipidosis
[2] = test system: A549-ACE2 infected with SARS-CoV-2; assay: SARS-CoV-2 infection rate relative to DMSO; higher = more infection; conditions: 24 h
[3] = test system: A549-ACE2 infected with SARS-CoV-2; assay: morphology score (similarity to uninfected cells); higher = more like uninfected cells; conditions: 24 h
Vero E6 [4] = assay: drug sensitivity score (DSS) for viability; higher = more toxic; extreme values may be limits of the assay; conditions: 72 h
U2OS [5] = assay: as above; conditions: 72 h
Caco-2 [6] = assay: as above; conditions: 72 h
HepG2 [7] = assay: as above; conditions: 72 h
Calu-3 [8] = assay: as above; conditions: 72 h
Vero E6 [9] = assay: cell viability relative to DMSO; higher = less toxic; conditions: 72 h
U2OS [10] = assay: as above; conditions: 72 h
Caco-2 [11] = assay: as above; conditions: 72 h
HepG2 [12] = assay: as above; conditions: 72 h
Calu-3 [13] = assay: as above; conditions: 72 h
[14] = test system: A549-ACE2 infected with SARS-CoV-2; assay: cell count relative to DMSO; higher = less toxic; conditions: 24 h
A549-ACE2 [15] = assay: phospholipidosis EC50; higher = less potent phospholipidosis inducer
Vero E6 [16] = assay: relative viability EC50 (midpoint between 100% and the lowest measured viability); higher = less toxic; conditions: 72 h
U2OS [17] = assay: as above; conditions: 72 h
Caco-2 [18] = assay: as above; conditions: 72 h
HepG2 [19] = assay: as above; conditions: 72 h
Calu-3 [20] = assay: as above; conditions: 72 h

O=C(NC1CCN(CCCCC2(C(=O)NCC(F)(F)F)c3ccccc3-c3ccccc32)CC1)c1ccccc1-c1ccc(C(F)(F)F)cc1 [lomitapide]
drug-induced phospholipidosis [%], A549-ACE2 [1]
Conditions	0.3 µM	0.833333 µM	3.33333 µM	6.66667 µM	10 µM	30 µM
24 h	11.9	29.7	81	81.2	40.9	49.8
48 h	15.5	36	91.1	108	–	–
72 h	12.7	28.5	83.5	131	–	–

Conditions	SARS-CoV-2 infection rate [%]	cell count [%]	cell viability [%]	morphology score	phospholipidosis EC50 [µM]
A549-ACE2 [15], 24 h	–	–	–	–	0.898
A549-ACE2 [15], 48 h	–	–	–	–	1.8
A549-ACE2 [15], 72 h	–	–	–	–	2.5
Caco-2 [11], 1 nM	–	–	101	–	–
Caco-2 [11], 10 nM	–	–	103	–	–
Caco-2 [11], 100 nM	–	–	103	–	–
Caco-2 [11], 1000 nM	–	–	103	–	–
Caco-2 [11], 10000 nM	–	–	11.8	–	–
Calu-3 [13], 1 nM	–	–	101	–	–
Calu-3 [13], 10 nM	–	–	100	–	–
Calu-3 [13], 100 nM	–	–	98.4	–	–
Calu-3 [13], 1000 nM	–	–	109	–	–
Calu-3 [13], 10000 nM	–	–	1.2	–	–
HepG2 [12], 1 nM	–	–	108	–	–
HepG2 [12], 10 nM	–	–	106	–	–
HepG2 [12], 100 nM	–	–	106	–	–
HepG2 [12], 1000 nM	–	–	100	–	–
HepG2 [12], 10000 nM	–	–	-0.5	–	–
U2OS [10], 1 nM	–	–	101	–	–
U2OS [10], 10 nM	–	–	110	–	–
U2OS [10], 100 nM	–	–	104	–	–
U2OS [10], 1000 nM	–	–	106	–	–
U2OS [10], 10000 nM	–	–	1.2	–	–
Vero E6 [9], 1 nM	–	–	102	–	–
Vero E6 [9], 10 nM	–	–	104	–	–
Vero E6 [9], 100 nM	–	–	96	–	–
Vero E6 [9], 1000 nM	–	–	97.8	–	–
Vero E6 [9], 10000 nM	–	–	-0.6	–	–
[2], 0.1 µM	98	–	–	–	–
[2], 0.3 µM	93	–	–	–	–
[2], 1 µM	72	–	–	–	–
[2], 3 µM	12	–	–	–	–
[3], 0.1 µM	–	–	–	-0.14	–
[3], 0.3 µM	–	–	–	0.12	–
[3], 1 µM	–	–	–	0.6	–
[3], 3 µM	–	–	–	0.91	–
[14], 0.1 µM	–	96	–	–	–
[14], 0.3 µM	–	104	–	–	–
[14], 1 µM	–	108	–	–	–
[14], 3 µM	–	119	–	–	–

Conditions	drug sensitivity score	relative viability EC50 [µM]
Caco-2 [6]	4.6	–
Caco-2 [18]	–	3.38
Calu-3 [8]	4.9	–
Calu-3 [20]	–	3.61
HepG2 [7]	5.6	–
HepG2 [19]	–	3.14
U2OS [5]	5.1	–
U2OS [17]	–	3.46
Vero E6 [4]	5.9	–
Vero E6 [16]	–	2.97

CC(Cc1ccccc1)NCCC(c1ccccc1)c1ccccc1 (stereo not drawn) [prenylamine]
drug-induced phospholipidosis [%], A549-ACE2 [1]
Conditions	0.3 µM	0.833333 µM	3.33333 µM	6.66667 µM	10 µM
24 h	2.14	1.61	44.8	88.2	97.4
48 h	3.35	0.12	33.5	85	103
72 h	3.19	2.37	29.7	74.3	100

Conditions	SARS-CoV-2 infection rate [%]	cell count [%]	cell viability [%]	morphology score	phospholipidosis EC50 [µM]
A549-ACE2 [15], 24 h	–	–	–	–	3.65
A549-ACE2 [15], 48 h	–	–	–	–	4.62
A549-ACE2 [15], 72 h	–	–	–	–	6.27
Caco-2 [11], 1 nM	–	–	112	–	–
Caco-2 [11], 10 nM	–	–	101	–	–
Caco-2 [11], 100 nM	–	–	93.6	–	–
Caco-2 [11], 1000 nM	–	–	100	–	–
Caco-2 [11], 10000 nM	–	–	87.1	–	–
Calu-3 [13], 1 nM	–	–	103	–	–
Calu-3 [13], 10 nM	–	–	106	–	–
Calu-3 [13], 100 nM	–	–	95.3	–	–
Calu-3 [13], 1000 nM	–	–	106	–	–
Calu-3 [13], 10000 nM	–	–	17.9	–	–
HepG2 [12], 1 nM	–	–	110	–	–
HepG2 [12], 10 nM	–	–	110	–	–
HepG2 [12], 100 nM	–	–	101	–	–
HepG2 [12], 1000 nM	–	–	107	–	–
HepG2 [12], 10000 nM	–	–	64.5	–	–
U2OS [10], 1 nM	–	–	97.2	–	–
U2OS [10], 10 nM	–	–	94.7	–	–
U2OS [10], 100 nM	–	–	97.3	–	–
U2OS [10], 1000 nM	–	–	100	–	–
U2OS [10], 10000 nM	–	–	85.7	–	–
Vero E6 [9], 1 nM	–	–	103	–	–
Vero E6 [9], 10 nM	–	–	110	–	–
Vero E6 [9], 100 nM	–	–	102	–	–
Vero E6 [9], 1000 nM	–	–	102	–	–
Vero E6 [9], 10000 nM	–	–	89.3	–	–
[2], 0.3 µM	108	–	–	–	–
[2], 3 µM	47	–	–	–	–
[2], 10 µM	6	–	–	–	–
[2], 30 µM	43	–	–	–	–
[3], 0.3 µM	–	–	–	-0.03	–
[3], 3 µM	–	–	–	0.78	–
[3], 10 µM	–	–	–	0.92	–
[3], 30 µM	–	–	–	-0.09	–
[14], 0.3 µM	–	103	–	–	–
[14], 3 µM	–	119	–	–	–
[14], 10 µM	–	123	–	–	–
[14], 30 µM	–	19	–	–	–

Conditions	drug sensitivity score	relative viability EC50 [µM]
Caco-2 [6]	0.1	–
Caco-2 [18]	–	> 10
Calu-3 [8]	4.1	–
Calu-3 [20]	–	3.51
HepG2 [7]	1.3	–
U2OS [5]	0.2	–
U2OS [17]	–	> 10
Vero E6 [4]	0	–
Vero E6 [16]	–	> 10
